# Patent US7259146B2, “Neuroprotective peptides” (Ortho-McNeil Pharmaceutical, Inc., priority 2000, dated 2007)
# “Also recorded” adds a separate entry of the source.
# How the values were obtained:
# PC-12 cells = assay: NGF withdrawal in PC-12 cells; assay type: cell-based, rat; settings: for protection against NGF withdrawal-induced cell death (in words): treated 24 hr before NGF removal, viable cells at 12, 24, 48, 72 hr
# Method: PC-12 cells (from a rat Pheochromocytoma) were cultured on poly-D-Lysine coated tissue culture plastic in DMEM containing 10% FBS and 5% Horse serum. To induce the neuronal phenotype in PC-12 cells, serum was removed and the cells were treated with NGF (50 ng/ml). Cells were grown for 7 days in the presence of the NGF then used for experiments.
# PC-12 cells were cultured as described above in a 96 well poly-d-lysine coated multi-well plate and treated with rhEPO (1 pm to 10 nm) for 24 hr prior to NGF withdrawal. On the day of the experiment the cells were washed with buffer 3 times to remove NGF and then cultured in fresh media without NGF. Immediately following NGF washout cells were counted (t=0) to determine the number of living cells. Cell viability was based on morphological characteristics including phase brightness, presence of axons, and absence of blebbing. Cell counts were performed at 12 hr, 24 hr, 48 hr and 72 hr and the number of viable cells were scored.
# [1] = cited from earlier work
# rat hippocampal cultures = assay: Neurite outgrowth assay (MAP2-FITC immunofluorescence), hippocampal cultures; assay type: cell-based
# Description: Dissociated hippocampal and cortical cell cultures were established from embryonic day 18 rat fetuses as previously described (Mattson et al., 1994). Briefly, fetuses were removed via cesarean section from pregnant moms (Sprague-Dawley) anesthetized with halothane according to the AVMA Panel on Euthanasia. Pups were decapitated and the brains were removed and placed in HEPES-buffered Hank's Balanced Salt solution (HBSS; Gibco). The hippocampi and cortices were dissected out and pooled according to tissue-type. Tissue was trypsinized for 15 min (1 mg/ml trypsin-HBSS; Worthington), rinsed with fresh HBSS, incubated in trypsin inhibitor (1 mg/ml; Sigma) for 5 min, rinsed again with fresh HBSS and then triturated in 1 ml fresh HBSS with a fire-polished glass pipette. Dissociated cells were seeded at 30,000 cells/well onto poly-D-lysine coated 96-well plates (Collaborative BioScience). Each well contained 100 μl of Eagle's Minimal Essential Media (MEM; Gibco) supplemented with 26 mM NaHCO3 (Sigma), 56 mM glucose (Sigma), 15 mM KCl (Sigma), 1 mM sodium pyruvate (Sigma), 1.1 mM L-glutamine (Sigma), 10% (v/v) heat-inactivated fetal bovine serum (Hyclone), and 0.001% gentamicin sulfate (Sigma) (pH 7.4). Cells were allowed to attach for 24 h in a humidified 37° C. 5% CO2 incubator before experimental treatment. The culture media was aspirated and exchanged with fresh media every three days.
# Twenty-four hours after plating, cultures were treated with vehicle (PBS+0.1% BSA), 100 ng of various growth factors (brain derived neurotrophic factor (BDNF; Promega), glial-derived neurotrophic factor (GDNF; Promega), nerve growth factor (NGF; Boehringer Mannheim), basic fibroblast growth factor (bFGF; Boehringer Mannheim), insulin-like growth factor-1 (IGF-1; Boehringer Mannheim), neurotrophin-3 (NT3; Calbiochem), neurotrophin-4 (NT4; Calbiochem), ciliary neurotrophic factor (CNTF; Calbiochem), epidermal growth factor (EGF; Calbiochem), vascular endothelial growth factor (VEGF; Calbiochem)), or rhEPO (prepared same as above; 10 fM-10 nM)). Each treatment condition was run in quadruplicate or octuplicate. On the third day in culture, the media was aspirated off and replaced with fresh media and test compound. At one week in culture, the cells were fixed with 10% phosphate-buffered formalin for 15 min, then rinsed with DPBS (Sigma) and placed in blocking serum for 30 min (horse serum; 1:50 dilution in DPBS; Vector Labs). Cultures were rinsed again with DPBS and then incubated in primary antibody for 2 hr (microtubule-associated protein-2 (MAP-2) is a selective marker for dendritic processes; anti-mouse monoclonal (Chemicon); 1:1000 dilution of MAP-2 in antibody diluent (Zymed)). Negative control wells were incubated in antibody diluent alone. Background signal was determined by blank wells (cell-free) incubated with or without antibody. Cultures were rinsed again with DPBS and then placed in fluorescein for 1 hr (FITC; anti-mouse IgG; rat adsorbed; 1:50 dilution in DPBS; Vector Labs). Cultures were rinsed a final time with DPBS and then the plates were read on a Cytofluor 4000 fluorescence plate reader. Neurite outgrowth was expressed as percent change from control (vehicle; mean fluorescence±SD).
# Dissociated hippocampal and cortical cell cultures were established from embryonic day 18 rat fetuses as previously described (Mattson et al., 1994). Briefly, fetuses were removed via cesarean section from pregnant moms (Sprague-Dawley) anesthetized with halothane according to the AVMA Panel on Euthanasia. Pups were decapitated and the brains were removed and placed in HEPES-buffered Hank's Balanced Salt solution (HBSS; Gibco). The hippocampi and cortices were dissected out and pooled according to tissue-type. […]
substance,measurement,setting,value
"EPO: purified, recombinant human EPO (rhEPO), formulated and distributed under the trademarks EPREX, ERYPO or PROCRIT",optimum / peak concentration for the neuroprotective effect,PC-12 cells; growth factor withdrawal,10 pm
same,neuroprotective effect at 1 nm,"PC-12 cells; growth factor withdrawal, 1 nm",no significant effect
same,dose response curve for the neuroprotective effect,"PC-12 cells; growth factor withdrawal, protection decreasing above 10 pm",bi-phasic
same,protection against NGF withdrawal-induced cell death (in words),PC-12 cells,significant decrease in cell death; also recorded: increased the number of viable cells at each time point
same,protection against NGF withdrawal-induced cell death (in words),PC-12 cells; listed as rhEPO,protects rat PC12 cells against NGF withdrawal-induced cell death
same,tolerability in studies conducted to date,[1]; patients,well tolerated
same,antibody titers against Epoetin alfa,[1]; subjects treated for up to 2 years,No antibody titers
same,"overall neurite outgrowth response, hippocampal versus cortical cultures",rat hippocampal cultures; comparison of hippocampal and cortical cultures,larger outgrowth response in the hippocampal cultures
same,neurite outgrowth (in words),rat hippocampal cultures; hippocampal cultures,significant increase in neurite outgrowth; also recorded: promotes neurite outgrowth
same,concentration of maximal neurite outgrowth promoting activity,"rat hippocampal cultures; hippocampal cultures, concentration dependent",maximal activity observed at pM levels
same,neurite outgrowth response over control,"rat hippocampal cultures; hippocampal cultures, rhEPO 10 fM-10 nM, one week in culture",12–44%
same,outgrowth promoting activity compared to known growth factors,"rat hippocampal cultures; hippocampal cultures, growth factors 100 ng","superior to several growth factors including BDNF, NGF and VEGF"
